Test results published in patent US20240158394A1, “NEK7 INHIBITORS” (Halia Therapeutics, Inc., priority 2022, published 2024).

What was measured:
[1] = target: full-length recombinant human NEK7 (Homo sapiens (Human), UniProt Q8TDX7); assay: NEK7 Enzymatic Assay; assay type: biochemical; conditions: casein substrate, [33P]-ATP, 2 hours at room temperature
Summary of the method: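 GST-tagged full-length human NEK7 (Sf9-expressed) with 1 mg/mL casein in HEPES pH 7.5/MgCl2 buffer, 1% DMSO; compounds 10 μM–0.5 nM preincubated 20 min at RT. Reaction started with [^33P]-ATP, 2 h at RT, P81 filter radioactivity read; IC50 from % activity remaining versus vehicle.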

IL-1β release = assay: IL-1β Release Assay; assay type: cell-based; conditions: Homo sapiens; PMA-treated THP-1 cells, 250 ng/mL LPS then 20 μM nigericin; cleaved IL-1β in media
Description: Approximately 1.5 million THP-1 cells were plated in each well of a 6-well TC plate and incubated with 40 nM PMA in RPMI (10% FBS, 1% Penstrep) for 24 hours. The media was then removed, and cells were rested in RPMI (10% FBS, 1% Penstrep) for 24 hours after which time the media was removed and cells were pre-treated for 2 hours with various concentrations of compounds of interest (typically serial 3-fold dilution in RPMI+5% FBS, concentrations ranging from 1 μM to 0.5 nM) in RPMI (5% FBS). The media was again removed, and cells were incubated with 250 ng/mL LPS and compounds of interest (concentrations as above) in RMPI (5% FBS) for 2 hours. The media was removed for a last time and cells were incubated with 20 μM nigericin and compounds of interest (concentrations as above) in Opti-MEM for 30 minutes. Cell media was then collected and the amount of cleaved IL-1β was determined using a JESS instrument (Protein Simple) and standard protocols. Cleaved Il-1β antibody was obtained from Cell Signaling (catalogue #83186S) and was used at 1:20 dilution in antibody diluent 2. Protein Simple 1× anti-Rabbit HRP secondary antibody was used along with Protein Simple luminol and peroxide for chemiluminescent detection. Primary antibody incubation time was increased from 30 minutes to 60 minutes.

Sequence of full-length recombinant human NEK7 (Q8TDX7 whole entry): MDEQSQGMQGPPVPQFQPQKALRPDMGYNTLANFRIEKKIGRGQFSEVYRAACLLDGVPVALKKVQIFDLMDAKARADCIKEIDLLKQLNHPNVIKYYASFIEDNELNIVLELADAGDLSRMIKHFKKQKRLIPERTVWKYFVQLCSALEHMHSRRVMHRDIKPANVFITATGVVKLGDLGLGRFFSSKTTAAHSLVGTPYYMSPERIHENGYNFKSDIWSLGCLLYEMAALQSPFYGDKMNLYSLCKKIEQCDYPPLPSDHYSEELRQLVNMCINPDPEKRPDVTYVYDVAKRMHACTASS

Structure (SMILES) | IC50 [1] [nM] | IC50 (IL-1β release) [nM]
Nc1ncnc2c1c(-c1ccc(NC(=O)Nc3cc(C4(C(F)(F)F)CC4)no3)c3nccn13)cn2C1CC1 [Example I-22, 1-(5-(4-amino-7-cyclopropyl-7H-pyrrolo[2,3-d]pyrimidin-5-yl)imidazo[1,2-a]pyridin-8-yl)-3-(3-(1-(trifluoromethyl)-cyclopropyl)isoxazol-5-yl)-urea] | < 200 | < 100
CN1CCC(Oc2ccc(NC(=O)Nc3ccc(-c4cn(C5CC5)c5ncnc(N)c45)n4ccnc34)cc2C(F)(F)F)CC1 [Example I-37, 1-(5-(4-amino-7-cyclopropyl-7H-pyrrolo[2,3-d]pyrimidin-5-yl)imidazo[1,2-a]pyridin-8-yl)-3-(4-((1-methylpiperidin-4-yl)oxy)-3-(trifluorometh-yl)phenyl)urea] | < 200 | < 100
CC(C)(C)c1cc(NC(=O)Nc2ccc(-c3cn(C4CC4)c4ncnc(N)c34)n3ccnc23)n(-c2ccccc2)n1 [Example I-11, 1-(5-(4-amino-7-cyclopropyl-7H-pyrrolo[2,3-d]pyrimidin-5-yl)imidazo[1,2-a]pyridin-8-yl)-3-(3-(tert-butyl)-1-phenyl-1H-pyrazol-5-yl)urea] | < 200 | < 100
CC(C)(C)c1cc(NC(=O)Nc2ccc(-c3cn(C4CC4)c4ncnc(N)c34)c3ccoc23)on1 [Example I-63, 1-(4-(4-amino-7-cyclopropyl-7H-pyrrolo[2,3-d]pyrimidin-5-yl)benzofuran-7-yl)-3-(3-(tert-butyl)isoxazol-5-yl)urea] | 500 to 2000 | 250 to 1000
CC(C)(C)c1cc(NC(=O)Nc2ccc(-c3cn(C4CC4)c4ncnc(N)c34)n3ccnc23)on1 [Example I-17, 1-(5-(4-amino-7-cyclopropyl-7H-pyrrolo[2,3-d]pyrimidin-5-yl)imidazo[1,2-a]pyridin-8-yl)-3-(3-(tert-butyl)isoxazol-5-yl)urea] | < 200 | < 100
